The NIST ThermoML archive (doi:10.1016/j.jct.2006.01.016)
± gives the expanded uncertainty stated by the source.

How the values were obtained:
[1] = 101 kPa, Liquid
[2] = xn = mol fraction of the nth substance listed; details: 101 kPa, Liquid

CCCCn1cc[n+](C)c1.F[B-](F)(F)F [1-butyl-3-methylimidazolium tetrafluoroborate]
mass density ([1]; 298.15 K): 1201.42 ± 3.8 kg/m3
speed of sound ([1]; 298.15 K): 1576 ± 12 m/s
mass density ([1]; 303.15 K): 1197.88 ± 3.7 kg/m3
speed of sound ([1]; 303.15 K): 1555.5 ± 12 m/s
mass density ([1]; 308.15 K): 1194.35 ± 3.7 kg/m3
speed of sound ([1]; 308.15 K): 1543.9 ± 12 m/s
mass density ([1]; 313.15 K): 1190.82 ± 3.7 kg/m3
speed of sound ([1]; 313.15 K): 1532.5 ± 12 m/s
mass density ([1]; 318.15 K): 1187.29 ± 3.6 kg/m3
speed of sound ([1]; 318.15 K): 1521.2 ± 12 m/s

CCCCn1cc[n+](C)c1.F[B-](F)(F)F [1-butyl-3-methylimidazolium tetrafluoroborate] + CC#N
mass density ([2]; 298.15 K, x1 = 0.0103): 794.416 ± 2.3 kg/m3
speed of sound ([2]; 298.15 K, x1 = 0.0103): 1289.2 ± 10 m/s
mass density ([2]; 298.15 K, x1 = 0.0442): 845.059 ± 1.9 kg/m3
speed of sound ([2]; 298.15 K, x1 = 0.0442): 1315.7 ± 11 m/s
mass density ([2]; 298.15 K, x1 = 0.1032): 913.689 ± 1.4 kg/m3
speed of sound ([2]; 298.15 K, x1 = 0.1032): 1354.8 ± 11 m/s
mass density ([2]; 298.15 K, x1 = 0.2015): 994.016 ± 0.76 kg/m3
speed of sound ([2]; 298.15 K, x1 = 0.2015): 1407.7 ± 11 m/s
mass density ([2]; 298.15 K, x1 = 0.2931): 1045.58 ± 1.1 kg/m3
speed of sound ([2]; 298.15 K, x1 = 0.2931): 1445.2 ± 11 m/s
mass density ([2]; 298.15 K, x1 = 0.3935): 1086.98 ± 1.6 kg/m3
speed of sound ([2]; 298.15 K, x1 = 0.3935): 1476.8 ± 12 m/s
mass density ([2]; 298.15 K, x1 = 0.5352): 1128.52 ± 2.1 kg/m3
speed of sound ([2]; 298.15 K, x1 = 0.5352): 1509.2 ± 12 m/s
mass density ([2]; 298.15 K, x1 = 0.7043): 1162.31 ± 2.7 kg/m3
speed of sound ([2]; 298.15 K, x1 = 0.7043): 1535.9 ± 12 m/s
mass density ([2]; 298.15 K, x1 = 1): 1201.42 ± 3.8 kg/m3
speed of sound ([2]; 298.15 K, x1 = 1): 1576 ± 12 m/s
mass density ([2]; 303.15 K, x1 = 0.0103): 789.093 ± 2.3 kg/m3
speed of sound ([2]; 303.15 K, x1 = 0.0103): 1269.3 ± 10 m/s
mass density ([2]; 303.15 K, x1 = 0.0442): 839.982 ± 1.9 kg/m3
speed of sound ([2]; 303.15 K, x1 = 0.0442): 1297 ± 11 m/s
mass density ([2]; 303.15 K, x1 = 0.1032): 908.908 ± 1.4 kg/m3
speed of sound ([2]; 303.15 K, x1 = 0.1032): 1337.2 ± 11 m/s
mass density ([2]; 303.15 K, x1 = 0.2015): 989.579 ± 0.8 kg/m3
speed of sound ([2]; 303.15 K, x1 = 0.2015): 1391.8 ± 11 m/s
mass density ([2]; 303.15 K, x1 = 0.2931): 1041.36 ± 1.1 kg/m3
speed of sound ([2]; 303.15 K, x1 = 0.2931): 1430.2 ± 11 m/s
mass density ([2]; 303.15 K, x1 = 0.3935): 1082.93 ± 1.5 kg/m3
speed of sound ([2]; 303.15 K, x1 = 0.3935): 1462.7 ± 12 m/s
mass density ([2]; 303.15 K, x1 = 0.5352): 1124.64 ± 2.1 kg/m3
speed of sound ([2]; 303.15 K, x1 = 0.5352): 1495.9 ± 12 m/s
mass density ([2]; 303.15 K, x1 = 0.7043): 1158.57 ± 2.6 kg/m3
mass density ([2]; 303.15 K, x1 = 1): 1197.88 ± 3.7 kg/m3
speed of sound ([2]; 303.15 K, x1 = 1): 1555.5 ± 12 m/s
mass density ([2]; 308.15 K, x1 = 0.0103): 783.745 ± 2.4 kg/m3
speed of sound ([2]; 308.15 K, x1 = 0.0103): 1249.6 ± 10 m/s
mass density ([2]; 308.15 K, x1 = 0.0442): 834.883 ± 2 kg/m3
speed of sound ([2]; 308.15 K, x1 = 0.0442): 1278.2 ± 10 m/s
mass density ([2]; 308.15 K, x1 = 0.1032): 904.123 ± 1.4 kg/m3
speed of sound ([2]; 308.15 K, x1 = 0.1032): 1319.7 ± 11 m/s
mass density ([2]; 308.15 K, x1 = 0.2015): 985.147 ± 0.83 kg/m3
speed of sound ([2]; 308.15 K, x1 = 0.2015): 1375.8 ± 11 m/s
mass density ([2]; 308.15 K, x1 = 0.2931): 1037.15 ± 1.1 kg/m3
speed of sound ([2]; 308.15 K, x1 = 0.2931): 1415.2 ± 11 m/s
mass density ([2]; 308.15 K, x1 = 0.3935): 1078.89 ± 1.5 kg/m3
speed of sound ([2]; 308.15 K, x1 = 0.3935): 1448.6 ± 11 m/s
mass density ([2]; 308.15 K, x1 = 0.5352): 1120.78 ± 2 kg/m3
speed of sound ([2]; 308.15 K, x1 = 0.5352): 1482.6 ± 12 m/s
mass density ([2]; 308.15 K, x1 = 0.7043): 1154.85 ± 2.6 kg/m3
speed of sound ([2]; 308.15 K, x1 = 0.7043): 1511.1 ± 12 m/s
mass density ([2]; 308.15 K, x1 = 1): 1194.35 ± 3.7 kg/m3
speed of sound ([2]; 308.15 K, x1 = 1): 1543.9 ± 12 m/s
mass density ([2]; 313.15 K, x1 = 0.0103): 778.368 ± 2.4 kg/m3
speed of sound ([2]; 313.15 K, x1 = 0.0103): 1230 ± 10 m/s
mass density ([2]; 313.15 K, x1 = 0.0442): 829.765 ± 2 kg/m3
speed of sound ([2]; 313.15 K, x1 = 0.0442): 1259.5 ± 10 m/s
mass density ([2]; 313.15 K, x1 = 0.1032): 899.327 ± 1.5 kg/m3
speed of sound ([2]; 313.15 K, x1 = 0.1032): 1302.3 ± 11 m/s
mass density ([2]; 313.15 K, x1 = 0.2015): 980.715 ± 0.86 kg/m3
speed of sound ([2]; 313.15 K, x1 = 0.2015): 1359.6 ± 11 m/s
mass density ([2]; 313.15 K, x1 = 0.2931): 1032.94 ± 1 kg/m3
speed of sound ([2]; 313.15 K, x1 = 0.2931): 1400.5 ± 11 m/s
mass density ([2]; 313.15 K, x1 = 0.3935): 1074.86 ± 1.5 kg/m3
speed of sound ([2]; 313.15 K, x1 = 0.3935): 1434.6 ± 11 m/s
mass density ([2]; 313.15 K, x1 = 0.5352): 1116.92 ± 2 kg/m3
speed of sound ([2]; 313.15 K, x1 = 0.5352): 1469.7 ± 12 m/s
mass density ([2]; 313.15 K, x1 = 0.7043): 1151.13 ± 2.6 kg/m3
speed of sound ([2]; 313.15 K, x1 = 0.7043): 1498.8 ± 12 m/s
mass density ([2]; 313.15 K, x1 = 1): 1190.82 ± 3.7 kg/m3
speed of sound ([2]; 313.15 K, x1 = 1): 1532.5 ± 12 m/s
mass density ([2]; 318.15 K, x1 = 0.0103): 772.971 ± 2.5 kg/m3
speed of sound ([2]; 318.15 K, x1 = 0.0103): 1210.3 ± 10 m/s
mass density ([2]; 318.15 K, x1 = 0.0442): 824.63 ± 2.1 kg/m3
speed of sound ([2]; 318.15 K, x1 = 0.0442): 1240.8 ± 10 m/s
mass density ([2]; 318.15 K, x1 = 0.1032): 894.531 ± 1.5 kg/m3
speed of sound ([2]; 318.15 K, x1 = 0.1032): 1284.9 ± 10 m/s
mass density ([2]; 318.15 K, x1 = 0.2015): 976.287 ± 0.91 kg/m3
speed of sound ([2]; 318.15 K, x1 = 0.2015): 1344.1 ± 11 m/s
mass density ([2]; 318.15 K, x1 = 0.2931): 1028.74 ± 1 kg/m3
speed of sound ([2]; 318.15 K, x1 = 0.2931): 1385.8 ± 11 m/s
mass density ([2]; 318.15 K, x1 = 0.3935): 1070.84 ± 1.4 kg/m3
speed of sound ([2]; 318.15 K, x1 = 0.3935): 1420.8 ± 11 m/s
mass density ([2]; 318.15 K, x1 = 0.5352): 1113.08 ± 2 kg/m3
speed of sound ([2]; 318.15 K, x1 = 0.5352): 1456.9 ± 12 m/s
mass density ([2]; 318.15 K, x1 = 0.7043): 1147.43 ± 2.5 kg/m3
speed of sound ([2]; 318.15 K, x1 = 0.7043): 1486.6 ± 12 m/s
mass density ([2]; 318.15 K, x1 = 1): 1187.29 ± 3.6 kg/m3
speed of sound ([2]; 318.15 K, x1 = 1): 1521.2 ± 12 m/s
